Patent US4120955A, “Method for production of kanamycin C and its derivatives” (Zaidan Hojin Biseibutsu Kagaku Kenkyu Kai, priority 1976, dated 1978)
Converted amounts (≈) assume the structure as drawn. “Also recorded” adds a separate entry of the source. Read-outs that look alike come from different tables or passages of the source.

What was measured:
[1] = test system: Pseudomonas aeruginosa H 11; experiment: Minimum inhibitory concentration, serial dilution method; format: cell-based; conditions: H11, 18 h, read-out: Minimum Inhibitory Concentration
Protocol: (§1) The minimum inhibitory concentrations (mcg/ml) of kanamycin C, 3'-deoxykanamycin C and 3',4'-dideoxykanamycin C against various microorganisms were determened according to serial dilution method using nutrient agar medium at 37° C., the estimation being effected after 18 hours incubation.

[2] = test system: Escherichia coli LA 290 R56; experiment: as above; format: cell-based; conditions: LA290R56, 18 h, read-out: Minimum Inhibitory Concentration
Protocol: as §1

[3] = test system: Pseudomonas aeruginosa TI-13; experiment: as above; format: cell-based; conditions: TI13, 18 h, read-out: Minimum Inhibitory Concentration
Protocol: as §1

[4] = test system: Escherichia coli LA 290 R64; experiment: as above; format: cell-based; conditions: LA290R64, 18 h, read-out: Minimum Inhibitory Concentration
Protocol: as §1

[5] = test system: Escherichia coli JR 66/W677; experiment: as above; format: cell-based
Protocol: as §1

[6] = test system: Escherichia coli K-12 ML 1629; experiment: as above; format: cell-based
Protocol: as §1

[7] = test system: Pseudomonas aeruginosa No. 12; experiment: as above; format: cell-based
Protocol: as §1

Escherichia coli K-12 R5 = experiment: as above; format: cell-based; conditions: K12R5, 18 h, read-out: Minimum Inhibitory Concentration
Protocol: as §1

Escherichia coli NIHJ = experiment: as above; format: cell-based; conditions: read-out: Minimum Inhibitory Concentration
Protocol: as §1

[8] = test system: Escherichia coli K-12 ML 1630; experiment: as above; format: cell-based; conditions: K12ML1630, nutrient agar, 37° C., 18 hours, E. coli K-12 ML 1630
Protocol: as §1

99 = experiment: as above; format: cell-based; conditions: 18 h, read-out: Minimum Inhibitory Concentration
Protocol: as §1

[9] = test system: Mycobacterium smegmatis ATCC 607; experiment: as above; format: cell-based; conditions: Mycolicibacterium smegmatis, read-out: Minimum Inhibitory Concentration
Protocol: as §1

[10] = test system: Escherichia coli LA 290 R55; experiment: as above; format: cell-based; conditions: LA290R55, 18 h, read-out: Minimum Inhibitory Concentration
Protocol: as §1

[11] = test system: Pseudomonas aeruginosa A3; experiment: as above; format: cell-based; conditions: nutrient agar, 37° C., 18 hours, P. aeruginosa A3
Protocol: as §1

Escherichia coli K-12 = experiment: as above; format: cell-based
Protocol: as §1

[12] = test system: Escherichia coli K-12 ML 1410 R81; experiment: as above; format: cell-based; conditions: 18 h, read-out: Minimum Inhibitory Concentration
Protocol: as §1

Escherichia coli W 677 = experiment: as above; format: cell-based
Protocol: as §1

[13] = test system: Klebsiella pneumoniae PCI 602; experiment: as above; format: cell-based
Protocol: as §1

[14] = test system: Staphylococcus aureus FDA 209P; experiment: as above; format: cell-based; conditions: FDA209P, read-out: Minimum Inhibitory Concentration
Protocol: as §1

[15] = test system: Pseudomonas aeruginosa GN 315; experiment: as above; format: cell-based
Protocol: as §1

[16] = test system: Escherichia coli K-12 ML 1410; experiment: as above; format: cell-based; conditions: K12ML1410, nutrient agar, 37° C., 18 hours, E. coli K-12 ML 1410
Protocol: as §1

[17] = test system: Klebsiella pneumoniae 22 No. 3038; experiment: as above; format: cell-based
Protocol: as §1

[18] = mouse, in vivo
in vivo = conditions: mouse, iv
[19] = test system: aminoglycoside 3'-phosphotransferases; experiment: Inactivation by aminoglycoside 3'-phosphotransferases; format: biochemical
[20] = test system: aminoglycoside 6'-acetyltransferases; experiment: Inactivation by aminoglycoside 6'-acetyltransferases; format: biochemical
bacterial strains = experiment: Antibacterial activity in general (summary of Table 1); format: cell-based
Protocol: as §1

[21] = test system: resistant strains which produce 6'-acetyltransferases, for example Pseudomonas aeruginosa GN315; conditions: known deoxykanamycin B derivatives; cited from earlier work
[22] = test system: aminoglycoside 6'-acetyltransferases; conditions: known kanamycins; cited from earlier work
[23] = test system: resistant bacteria which produce 3'-phosphotransferases; conditions: known deoxykanamycin B derivatives; cited from earlier work
[24] = JR66/W677, 18 h, read-out: Minimum Inhibitory Concentration
[25] = K12ML1629, 18 h, read-out: Minimum Inhibitory Concentration
[26] = NO.12, 18 h, read-out: Minimum Inhibitory Concentration
[27] = ATCC607, nutrient agar, 37° C., 18 hours, M. smegmatis ATCC 607
[28] = K12, 18 h, read-out: Minimum Inhibitory Concentration
[29] = W677, 18 h, read-out: Minimum Inhibitory Concentration
[30] = PCI602, 18 h, read-out: Minimum Inhibitory Concentration
[31] = GN315, 18 h, read-out: Minimum Inhibitory Concentration
[32] = 22NO.3038, 18 h, read-out: Minimum Inhibitory Concentration
[33] = JR66/W677, nutrient agar, 37° C., 18 hours, E. coli JR 66/W677, read-out: Minimum Inhibitory Concentration
[34] = K12, nutrient agar, 37° C., 18 hours, E. coli K-12, read-out: Minimum Inhibitory Concentration
[35] = W677, nutrient agar, 37° C., 18 hours, E. coli W 677, read-out: Minimum Inhibitory Concentration
[36] = PCI602, nutrient agar, 37° C., 18 hours, K. pneumoniae PCI 602, read-out: Minimum Inhibitory Concentration
[37] = nutrient agar, 37° C., 18 hours, S. aureus FDA 209P
[38] = nutrient agar, 37° C., 18 hours, K. pneumoniae 22 No. 3038, read-out: Minimum Inhibitory Concentration

Compound: NC1CCC(CO)OC1OC1C(N)CC(N)C(OC2OC(CO)C(O)C(N)C2O)C1O (stereo not drawn) [3',4'-Dideoxykanamycin C, 3',4'-dideoxykanamycin C]
- MIC [1]: 100 µg/mL (≈ 221 µM)
- MIC [2]: 100 µg/mL (≈ 221 µM)
- MIC [3]: 100 µg/mL (≈ 221 µM)
- MIC [4]: 100 µg/mL (≈ 221 µM)
- MIC [5, 24]: > 100 µg/mL
- MIC [6, 25]: 12.5 µg/mL (≈ 27.6 µM)
- MIC [7, 26]: 100 µg/mL (≈ 221 µM)
- MIC (Escherichia coli K-12 R5): 12.5 µg/mL (≈ 27.6 µM)
- MIC (Escherichia coli NIHJ; 18 h): 12.5 µg/mL (≈ 27.6 µM)
- MIC [8]: 12.5 µg/mL (≈ 27.6 µM)
- MIC 99: > 100 µg/mL
- MIC [9, 27]: 50 µg/mL (≈ 110 µM)
- MIC [10]: > 100 µg/mL
- MIC [11]: 100 µg/mL (≈ 221 µM)
- MIC (Escherichia coli K-12; [28]): 25 µg/mL (≈ 55.2 µM)
- MIC [12]: 50 µg/mL (≈ 110 µM)
- MIC (Escherichia coli W 677; [29]): 6.25 µg/mL (≈ 13.8 µM)
- MIC [13, 30]: 25 µg/mL (≈ 55.2 µM)
- MIC ([14]; 18 h): 6.25 µg/mL (≈ 13.8 µM)
- MIC [15, 31]: 100 µg/mL (≈ 221 µM)
- MIC [16]: 12.5 µg/mL (≈ 27.6 µM)
- MIC [17, 32]: > 100 µg/mL
- acute toxicity compared with deoxy derivatives of kanamycin B [18]: remarkably lower toxicity
- LD50 (in vivo): > 300 mg/kg
- inactivation by 3'-phosphotransferases [19]: not inactivated
- inactivation by 6'-acetyltransferases [20]: not inactivated
- growth inhibition of bacterial strains (bacterial strains): inhibits the growth of many kinds of bacterial strains
- antibacterial activity compared with 3'-deoxykanamycin B and 3',4'-dideoxykanamycin B (bacterial strains; against some bacteria strains): inferior

Compound: NCC1CCC(N)C(OC2C(N)CC(N)C(OC3OC(CO)C(O)C(N)C3O)C2O)O1 (stereo not drawn) [DKB, 3',4'-dideoxykanamycin B, reference compound]
- MIC [2]: 12.5 µg/mL (≈ 27.7 µM)
- MIC [3]: 1.56 µg/mL (≈ 3.45 µM)
- MIC [4]: 6.25 µg/mL (≈ 13.8 µM)
- MIC [5, 33]: 50 µg/mL (≈ 111 µM)
- MIC ([6]; K12ML1629, nutrient agar, 37° C., 18 hours, E. coli K-12 ML 1629, read-out: Minimum Inhibitory Concentration): 0.78 µg/mL (≈ 1.73 µM)
- MIC ([7]; nutrient agar, 37° C., 18 hours, P. aeruginosa No. 12, read-out: Minimum Inhibitory Concentration): 0.78 µg/mL (≈ 1.73 µM)
- MIC (Escherichia coli NIHJ; nutrient agar, 37° C., 18 hours, E. coli NIHJ): 0.39 µg/mL (≈ 0.864 µM)
- MIC [8]: 0.78 µg/mL (≈ 1.73 µM)
- MIC 99: 3.13 µg/mL (≈ 6.93 µM)
- MIC [9, 27]: 0.39 µg/mL (≈ 0.864 µM)
- MIC [10]: 50 µg/mL (≈ 111 µM)
- MIC [11]: 1.56 µg/mL (≈ 3.45 µM)
- MIC (Escherichia coli K-12; [34]): 0.78 µg/mL (≈ 1.73 µM)
- MIC [12]: 1.56 µg/mL (≈ 3.45 µM)
- MIC (Escherichia coli W 677; [35]): 0.2 µg/mL (≈ 0.443 µM)
- MIC [13, 36]: 0.39 µg/mL (≈ 0.864 µM)
- MIC [14, 37]: < 0.2 µg/mL
- MIC ([15]; GN315, nutrient agar, 37° C., 18 hours, P. aeruginosa GN 315, read-out: Minimum Inhibitory Concentration): > 100 µg/mL
- MIC [16]: 1.56 µg/mL (≈ 3.45 µM)
- MIC [17, 38]: 100 µg/mL (≈ 221 µM)
- growth inhibition of resistant bacteria producing 6'-acetyltransferases [21]: not able to inhibit the growth
- inactivation (acetylation of the 6'-amino group) by 6'-acetyltransferases [22]: can be inactivated; also recorded: acetylate the 6'-amino group

Compound: NCC1OC(OC2C(N)CC(N)C(OC3OC(CO)C(O)C(N)C3O)C2O)C(N)CC1O (stereo not drawn) [DKMB, 3'-deoxykanamycin B, reference compound]
- MIC [2]: 3.13 µg/mL (≈ 6.69 µM)
- MIC [3]: 0.78 µg/mL (≈ 1.67 µM)
- MIC [4]: 3.13 µg/mL (≈ 6.69 µM)
- MIC [5, 33]: 50 µg/mL (≈ 107 µM)
- MIC [6, 25]: 1.56 µg/mL (≈ 3.34 µM)
- MIC [7, 26]: 0.78 µg/mL (≈ 1.67 µM)
- MIC (Escherichia coli NIHJ; 18 h): 0.78 µg/mL (≈ 1.67 µM)
- MIC [8]: 1.56 µg/mL (≈ 3.34 µM)
- MIC 99: 1.56 µg/mL (≈ 3.34 µM)
- MIC [9, 27]: 0.39 µg/mL (≈ 0.834 µM)
- MIC [10]: 25 µg/mL (≈ 53.5 µM)
- MIC [11]: 1.56 µg/mL (≈ 3.34 µM)
- MIC (Escherichia coli K-12; [34]): 0.39 µg/mL (≈ 0.834 µM)
- MIC [12]: 1.56 µg/mL (≈ 3.34 µM)
- MIC (Escherichia coli W 677; [35]): 0.39 µg/mL (≈ 0.834 µM)
- MIC [13, 36]: 0.39 µg/mL (≈ 0.834 µM)
- MIC [14, 37]: < 0.2 µg/mL
- MIC [15, 31]: 100 µg/mL (≈ 214 µM)
- MIC [16]: 1.56 µg/mL (≈ 3.34 µM)
- MIC [17, 38]: 50 µg/mL (≈ 107 µM)
- growth inhibition of resistant bacteria producing 6'-acetyltransferases [21]: not able to inhibit the growth
- LD50 (in vivo): 159 mg/kg
- activity against resistant bacteria producing aminoglycoside 3'-phosphotransferases [23]: active
- inactivation (acetylation of the 6'-amino group) by 6'-acetyltransferases [22]: can be inactivated; also recorded: acetylate the 6'-amino group

Compound: NC1CC(N)C(OC2OC(CO)C(O)C(N)C2O)C(O)C1OC1OC(CO)C(O)C(O)C1N (stereo not drawn) [Kanamycin C, kanamycin C]
- MIC [1]: > 100 µg/mL
- MIC [2]: 25 µg/mL (≈ 51.6 µM)
- MIC [3]: > 100 µg/mL
- MIC [4]: 25 µg/mL (≈ 51.6 µM)
- MIC [5, 24]: > 100 µg/mL
- MIC [6, 25]: > 100 µg/mL
- MIC [7, 26]: 100 µg/mL (≈ 206 µM)
- MIC (Escherichia coli K-12 R5): 3.13 µg/mL (≈ 6.46 µM)
- MIC (Escherichia coli NIHJ; 18 h): 3.13 µg/mL (≈ 6.46 µM)
- MIC [8]: > 100 µg/mL
- MIC 99: > 100 µg/mL
- MIC ([9]; ATCC607, 18 h): 12.5 µg/mL (≈ 25.8 µM)
- MIC [10]: > 100 µg/mL
- MIC [11]: > 100 µg/mL
- MIC (Escherichia coli K-12; [28]): 3.13 µg/mL (≈ 6.46 µM)
- MIC [12]: > 100 µg/mL
- MIC (Escherichia coli W 677; [29]): 3.13 µg/mL (≈ 6.46 µM)
- MIC [13, 30]: 3.13 µg/mL (≈ 6.46 µM)
- MIC ([14]; 18 h): 1.56 µg/mL (≈ 3.22 µM)
- MIC [15, 31]: > 100 µg/mL
- MIC [16]: 6.25 µg/mL (≈ 12.9 µM)
- MIC [17, 32]: > 100 µg/mL
- inactivation by 6'-acetyltransferases [20]: inherently cannot be inactivated

Compound: NCC1OC(OC2C(N)CC(N)C(OC3OC(CO)C(O)C(N)C3O)C2O)C(O)C(O)C1O (stereo not drawn) [kanamycin A]
- inactivation (acetylation of the 6'-amino group) by 6'-acetyltransferases [22]: acetylate the 6'-amino group

Compound: NC[C@H]1O[C@H](O[C@H]2[C@H](O)[C@@H](O[C@H]3O[C@H](CO)[C@@H](O)[C@H](N)[C@H]3O)[C@H](N)C[C@@H]2N)[C@H](N)[C@@H](O)[C@@H]1O [kanamycin B]
- inactivation (acetylation of the 6'-amino group) by 6'-acetyltransferases [22]: acetylate the 6'-amino group
